Laboratory results reported in patent publication US12226476B2, “Helper epitope peptide and application thereof” (CHINA PHARMACEUTICAL UNIVERSITY, priority 2018, dated 2025).
Non-standard residues stand in square brackets, D forms with d. No end group written: not given here. Phe(4-NO2) = N[C@@H](Cc1ccc([N+](=O)[O-])cc1)C(=O)O

How the values were obtained:
Type in all cases: in vivo
B epitope SEQ ID NO: 43 = assay: Antibody titer in serum of immunized mice, indirect ELISA; details: FIG. 23; compared with the B epitope SEQ ID NO: 43 group and the B epitope SEQ ID NO: 43-PADRE group; mice immunized subcutaneously, 50 μg, Freund's adjuvant
Method: (§1) The protocol is as follows: • (1) The helper epitope was connected to individual antigens or antigen epitope with the linking peptide to construct multiple fusion antigens. The sequence of the linking peptide is GPSL (i.e. Gly-Pro-Ser-Leu) (SEQ ID NO:51). • (2) The fusion antigens from (1) were emulsified adequately with complete Freund's adjuvant of the same volume. Then to immunize mice via subcutaneous injection with the emulsion at the dose of 50 μg per mouse. The strains of experimental mice including C57, Fvb and Balb/C. After 7 days and 14 days of first immunization, the fusion antigens from (1) were emulsified adequately with incomplete Freund's adjuvant of the same volume and then to immunize mice via subcutaneous injection with the emulsion at the dose of 50 μg per mouse. • (3) There are two detection methods. […] Then the antibody titer is detected by indirect ELISA. […] PBMC (peripheral blood mononuclear cells) are isolated, and the CTL-mediated cytotoxicity is detected by LDH (lactate dehydrogenase) kit. […]
(§2) Method 1: The whole blood was collected every week after immunization and centrifugated at 6000 rpm for 20 min to obtain the serum for a total of 4 weeks. Antibody titers were detected by indirect ELISA as follows: • (1) Coating: the existing antigen or antigen epitope was diluted to 5 μg/mL with coating solution. […]

Aβ protein-42 = assay: as above; details: FIG. 24; compared with the Aβ protein-42 group and the Aβ protein-PADRE group; mice immunized subcutaneously, 50 μg, Freund's adjuvant
Method: as §1, §2

target cells = assay: CTL-mediated cytotoxicity of PBMC from spleen of immunized mice, LDH kit; details: one week after last immunization
Method: The protocol is as follows: • (1) The helper epitope was connected to individual antigens or antigen epitope with the linking peptide to construct multiple fusion antigens. The sequence of the linking peptide is GPSL (i.e. Gly-Pro-Ser-Leu) (SEQ ID NO:51). • (2) The fusion antigens from (1) were emulsified adequately with complete Freund's adjuvant of the same volume. Then to immunize mice via subcutaneous injection with the emulsion at the dose of 50 μg per mouse. The strains of experimental mice including C57, Fvb and Balb/C. After 7 days and 14 days of first immunization, the fusion antigens from (1) were emulsified adequately with incomplete Freund's adjuvant of the same volume and then to immunize mice via subcutaneous injection with the emulsion at the dose of 50 μg per mouse. • (3) There are two detection methods. One is to obtain the orbital blood of immunized mice on 7, 14, 21 and 28 day respectively, centrifuge the whole blood to get the serum. Then the antibody titer is detected by indirect ELISA. The other one is: one week after the last immunization, the mice are killed to get the spleen. PBMC (peripheral blood mononuclear cells) are isolated, and the CTL-mediated cytotoxicity is detected by LDH (lactate dehydrogenase) kit.
The first step was to construct the fusion antigen. […]
Method 2: one week after last immunization, mice were sacrificed, and spleen was taken; then PBMC (peripheral blood mononuclear cells) were isolated, and the CTL-mediated cytotoxicity was detected by LDH (lactate dehydrogenase) kit. • (1) Setting control: The control group was divided into effector cell spontaneous release group, experimental group, target cell spontaneous release group, target cell maximum release group, volume correction control group and background control group; • (2) The cells were centrifuged at 250 g for 4 minutes to make the effector cells fully contact with the target cells; • (3) The detection plate was incubated with 5% CO2 at 37° C. for 4 hours; 10 μL of Lysis buffer was added to every 100 μL medium (10×) in the target cell maximum release group. […]

Sequence: FLPESFDGDPASNTAPLQPEGPSLAKFXAAWTLKAAA (FLPESFDGDPASNTAPLQPEGPSLAKF[Phe(4-NO2)]AAWTLKAAA) [B epitope+3 pPhe-PADRE]
- antibody titers (B epitope SEQ ID NO: 43): significant increase

Sequence: LVFFAEDVGSNKGAIIGLMVGGVVIAGPSLAKFVAXWTLKAAA (LVFFAEDVGSNKGAIIGLMVGGVVIAGPSLAKFVA[Phe(4-NO2)]WTLKAAA) [A-beta protein-6pPhe-PADRE]
- antibody titers (Aβ protein-42): significant increase

Sequence: TGYLYISAGPSLAXFVAAWTLKAAA (TGYLYISAGPSLA[Phe(4-NO2)]FVAAWTLKAAA) [epitope 2+2p-PADRE]
- CTL-mediated cytotoxicity (target cells; FIG. 21, compared with the epitope SEQ ID NO:41 group and the epitope SEQ ID NO: 41-PADre group): significantly enhanced

Sequence: VLDNGDPLGPSLTGYLYISAGPSLAKXVAAWTLKAAA (VLDNGDPLGPSLTGYLYISAGPSLAK[Phe(4-NO2)]VAAWTLKAAA) [epitope 3+3p-PADRE]
- CTL-mediated cytotoxicity (target cells; FIG. 22, compared with the epitope SEQ ID NO:42 group and the epitope SEQ ID NO: 42-PADre group): significantly enhanced

Sequence: VLDNGDPLGPSLXKFVAAWTLKAAA (VLDNGDPLGPSL[Phe(4-NO2)]KFVAAWTLKAAA) [epitope 1+1p-PADRE]
- CTL-mediated cytotoxicity (target cells; FIG. 20, compared with the epitope SEQ ID NO:40 group and the epitope SEQ ID NO: 40-PADre group): significantly enhanced
